pEC50, pIC50: −log10 of the molar value. “Also recorded” adds a separate entry of the source. One block for each molecule: values may come before it.
How the values were obtained:
[1] = molecular target: T1, sphingosine-1-phosphate receptor 4 (S1PR4) (Homo sapiens, UniProt O95977); experiment: β-arrestin cell-based GPCR assay (DiscoveRx), agonist mode, S1PR4; conditions: for agonist activity at / interaction with S1PR4: GPCR screen
T1 sequence (O95977 1-384): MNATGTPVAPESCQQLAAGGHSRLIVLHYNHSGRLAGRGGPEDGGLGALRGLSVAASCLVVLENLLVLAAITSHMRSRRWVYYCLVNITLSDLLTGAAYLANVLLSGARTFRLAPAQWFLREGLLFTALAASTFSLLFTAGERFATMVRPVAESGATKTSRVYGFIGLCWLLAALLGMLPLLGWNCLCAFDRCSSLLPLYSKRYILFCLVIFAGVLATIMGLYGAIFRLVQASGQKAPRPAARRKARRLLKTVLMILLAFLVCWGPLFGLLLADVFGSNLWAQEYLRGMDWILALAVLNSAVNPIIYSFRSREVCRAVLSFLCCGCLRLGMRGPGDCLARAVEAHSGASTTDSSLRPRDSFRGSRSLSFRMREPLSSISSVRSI
Description: The major N-acyl amide analog isolated from each family was assayed for agonist and antagonist activity against a panel of 240 human GPCRs (FIG. 3 and FIG. 8).
(§1) Using β-arrestin cell-based assays at 10 uM ligand concentration, agonist and antagonist activity was assessed by DiscoveRx against 168 GPCRs with known ligands as well as 72 orphan GPCRs. […] Synthetic N-acyl amides were assayed in the same fashion.

S1PR1 = S1PR1 (Homo sapiens, UniProt P21453); experiment: β-arrestin GPCR screen, agonist mode, S1PR1; type: cell-based
S1PR1, sequence (P21453 whole entry): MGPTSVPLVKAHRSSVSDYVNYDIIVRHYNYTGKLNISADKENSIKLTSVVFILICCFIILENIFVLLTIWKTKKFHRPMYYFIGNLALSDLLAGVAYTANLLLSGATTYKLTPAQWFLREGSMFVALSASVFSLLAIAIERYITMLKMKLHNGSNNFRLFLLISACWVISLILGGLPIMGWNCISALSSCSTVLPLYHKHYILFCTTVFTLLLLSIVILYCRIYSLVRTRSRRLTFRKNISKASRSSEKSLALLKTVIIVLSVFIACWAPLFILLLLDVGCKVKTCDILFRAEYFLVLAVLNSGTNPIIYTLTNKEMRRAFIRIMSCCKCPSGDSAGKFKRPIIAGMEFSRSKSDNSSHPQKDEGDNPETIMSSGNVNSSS
Description: as §1

S1PR2 = S1PR2 (Homo sapiens, UniProt O95136); experiment: β-arrestin GPCR screen, agonist mode, S1PR2; type: cell-based
S1PR2, sequence (O95136 whole entry): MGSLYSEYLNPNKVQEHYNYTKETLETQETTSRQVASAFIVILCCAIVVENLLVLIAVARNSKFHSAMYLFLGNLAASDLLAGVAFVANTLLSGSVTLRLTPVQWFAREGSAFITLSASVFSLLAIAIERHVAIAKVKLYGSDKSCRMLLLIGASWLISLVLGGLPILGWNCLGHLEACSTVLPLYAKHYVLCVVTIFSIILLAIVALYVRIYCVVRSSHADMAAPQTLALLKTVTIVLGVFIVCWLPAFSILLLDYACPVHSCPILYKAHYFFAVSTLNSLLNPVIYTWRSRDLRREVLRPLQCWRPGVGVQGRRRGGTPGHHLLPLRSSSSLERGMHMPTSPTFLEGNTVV
Description: as §1

S1PR3 = S1PR3 (Homo sapiens, UniProt Q99500); experiment: β-arrestin GPCR screen, agonist mode, S1PR3; type: cell-based
S1PR3, sequence (Q99500 whole entry): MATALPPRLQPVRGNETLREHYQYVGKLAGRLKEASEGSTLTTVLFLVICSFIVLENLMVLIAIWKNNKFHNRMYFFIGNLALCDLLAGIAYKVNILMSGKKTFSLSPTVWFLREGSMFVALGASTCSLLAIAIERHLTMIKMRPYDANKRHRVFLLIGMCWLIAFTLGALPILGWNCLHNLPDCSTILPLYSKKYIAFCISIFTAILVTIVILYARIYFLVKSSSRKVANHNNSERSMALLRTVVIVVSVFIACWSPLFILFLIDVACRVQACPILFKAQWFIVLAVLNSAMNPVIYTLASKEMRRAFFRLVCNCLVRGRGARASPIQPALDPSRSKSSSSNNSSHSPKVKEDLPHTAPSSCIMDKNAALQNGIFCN
Description: as §1

GPR119 [2] = molecular target: T2, GPR119 (Homo sapiens, UniProt Q8TDV5); experiment: β-arrestin cell-based GPCR assay (DiscoveRx), agonist mode, GPR119; conditions: for interaction with GPR119: GPCR screen and dose response, FIG. 8
T2 sequence (Q8TDV5 1-335): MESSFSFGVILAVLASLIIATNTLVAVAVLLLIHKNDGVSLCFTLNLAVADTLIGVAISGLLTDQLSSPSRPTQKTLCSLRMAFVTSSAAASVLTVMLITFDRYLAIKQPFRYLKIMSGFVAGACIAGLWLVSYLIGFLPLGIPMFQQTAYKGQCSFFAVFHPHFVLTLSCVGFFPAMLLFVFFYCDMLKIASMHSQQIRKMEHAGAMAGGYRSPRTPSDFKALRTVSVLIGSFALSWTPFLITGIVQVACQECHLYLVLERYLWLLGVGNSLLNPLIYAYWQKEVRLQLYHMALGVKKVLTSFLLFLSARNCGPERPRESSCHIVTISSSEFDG
Description: (§2) The major N-acyl amide analog isolated from each family was assayed for agonist and antagonist activity against a panel of 240 human GPCRs (FIG. 3 and FIG. 8). […] The maximal activation of GPR119 and S1PR4 by the bacterial N-acyl amides was similar to the endogenous ligand (GPR119 100%, S1PR4 80%). Interactions between the bacterial N-acyl amides and GPCRs were also specific (FIG. 3A and FIG. 3B).
(§3) For each of the 6 N-acyl amide families (1-6) the analogue produced at the highest level in the heterologous expression experiments was assayed for GPCR activity. In the case of family 4 the major lysine analogue (N-3-hydroxyoleoyl lysine) was screened. Using β-arrestin cell-based assays at 10 uM ligand concentration, agonist and antagonist activity was assessed by DiscoveRx against 168 GPCRs with known ligands as well as 72 orphan GPCRs. […] Synthetic N-acyl amides were assayed in the same fashion.

GLUTag cells = experiment: GLP-1 release from GLUTag cells; type: cell-based, Murine; conditions: equimolar concentrations, 2 hours
Source text: (§4) GPR119 is the most extensively studied of the GPCRs activated by bacterial N-acyl amides (FIG. 4). Mechanisms that link endogenous GPR119 agonists (OEA, 2-OG) to changes in host phenotype are well defined as a result of the exploration of GPR119 as a therapeutic target for the treatment of diabetes and obesity. In fact, synthetic small molecule GPR119 agonists are in clinical trials as treatment for both diseases (Ritter et al., 2016, J Med Chem 59:3579-92; Nunez et al., 2014, PLoS One 9:e92494; Ha et al., 2014, Arch Pharm Res 37:671-8; Katz et al., 2012, Diabetes Obes Metab 14:709-16). GPR119 agonists are thought to affect diverse metabolic functions, primarily glucose homeostasis but also gastric emptying and appetite, in vivo through GPR119-dependent hormone release from enteroendocrine cells (GLP-1, GIP, PYY) and pancreatic β-cells (insulin) (Flock et al., 2011, Endorinol 152:374-83; Overton et al., 2006, Cell Metab 3:167-75; Chu et al., 2007, Endocrinol 148:2601-9; Chu et al., 2008, Endocrinol 149:2038-47; Lauffer et al., 2009, Diabetes 58:1058-66; Serrano et al., 2011, Neuropharmacol 60:593-601). Murine enteroendocrine GLUTag cells have been used as a model system for measuring the ability of potential GPR119 agonists to induce GLP-1 release. […] To provide an orthogonal measurement of GPR119 activation by N-acyl serinols, HEK293 cells were stably transfected with a GPR119 expression construct.
Oleoyl ethanolamide and 2-oleoyl glycerol were purchased from Cayman Chemical Company and resuspended in DMSO to a concentration of 10 mM. N-oleoyl serinol was isolated and purified in the same manner as N-palmitoyl serinol described above and confirmed by ^1H NMR and HRMS. N-oleoyl serinol was resuspended at 10 mM concentration in DMSO. GLUTag cells were obtained from the Mangelsdorf Lab (University of Texas Southwestern) with permission from Daniel Drucker (Mount Sinai Hospital Toronto). […] Media was then collected, centrifuged at 500×g (4° C.) for 5 minutes and cell free supernatant was analyzed for GLP-1 level using the Active GLP-1 V2 kit (Mesoscale Discovery). […]

[3] = mice; cited from earlier work
GPR119 [4] = molecular target: T2, GPR119; experiment: cAMP secondary assay in ACTOne HEK293 cells transfected with GPR119; type: cell-based; design: expressed in transfected cells; host or cells: ACTOne HEK293 cells; conditions: for cellular cAMP concentration: HEK293 cells stably transfected with GPR119 vs native cells
Description: FIG. 10 depicts a secondary assay of GPR119. ACTOne HEK293 cells (control) and ACTOne HEK293 cells transfected with GPR119 were exposed to equimolar concentrations of the endogenous GPR119 ligand oleoylethanolamide or the bacterial ligand N-oleoyl serinol. Relative fluorescent intensity was recorded for each ligand concentration compared to background signal. All data points were performed in quadruplicate and error bars represent SD around the mean. […] The DCEA [5-(N-Ethylcarboxamido)adenosine] control is presented to confirm cAMP response of the parental cell line.
as §4

G2A = molecular target: T3, G2A (Homo sapiens, UniProt Q9UNW8); experiment: β-arrestin cell-based GPCR assay (DiscoveRx), agonist mode, orphan receptor G2A; conditions: for activation of G2A: GPCR screen
T3 sequence (Q9UNW8 1-380): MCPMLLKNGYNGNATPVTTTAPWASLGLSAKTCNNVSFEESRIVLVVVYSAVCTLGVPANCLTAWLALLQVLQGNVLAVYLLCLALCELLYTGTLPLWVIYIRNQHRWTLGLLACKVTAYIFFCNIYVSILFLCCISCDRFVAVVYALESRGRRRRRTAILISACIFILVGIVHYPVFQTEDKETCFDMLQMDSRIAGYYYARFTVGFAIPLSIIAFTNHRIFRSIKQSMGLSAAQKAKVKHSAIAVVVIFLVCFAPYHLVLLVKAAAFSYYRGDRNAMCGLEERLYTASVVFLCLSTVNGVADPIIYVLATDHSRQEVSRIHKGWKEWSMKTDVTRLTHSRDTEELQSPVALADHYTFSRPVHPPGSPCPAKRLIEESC
Description: as §2, §3

PTGIR = PTGIR (Homo sapiens, UniProt P43119); experiment: β-arrestin cell-based GPCR assay (DiscoveRx), antagonist mode, PTGIR
PTGIR, sequence (P43119 whole entry): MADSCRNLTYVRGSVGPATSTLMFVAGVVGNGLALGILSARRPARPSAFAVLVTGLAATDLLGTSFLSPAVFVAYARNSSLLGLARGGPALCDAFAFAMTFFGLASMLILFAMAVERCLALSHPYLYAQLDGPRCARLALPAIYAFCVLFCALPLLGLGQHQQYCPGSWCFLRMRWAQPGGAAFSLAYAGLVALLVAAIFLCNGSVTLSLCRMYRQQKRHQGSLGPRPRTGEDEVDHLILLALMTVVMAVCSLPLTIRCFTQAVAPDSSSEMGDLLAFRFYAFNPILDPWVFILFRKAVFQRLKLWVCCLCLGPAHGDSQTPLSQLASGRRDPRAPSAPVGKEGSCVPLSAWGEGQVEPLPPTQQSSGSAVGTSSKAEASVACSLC
Description: as §2, §3

PTGER4 = PTGER4 (Homo sapiens, UniProt P35408); experiment: β-arrestin cell-based GPCR assay (DiscoveRx), antagonist mode, PTGER4
PTGER4, sequence (P35408 whole entry): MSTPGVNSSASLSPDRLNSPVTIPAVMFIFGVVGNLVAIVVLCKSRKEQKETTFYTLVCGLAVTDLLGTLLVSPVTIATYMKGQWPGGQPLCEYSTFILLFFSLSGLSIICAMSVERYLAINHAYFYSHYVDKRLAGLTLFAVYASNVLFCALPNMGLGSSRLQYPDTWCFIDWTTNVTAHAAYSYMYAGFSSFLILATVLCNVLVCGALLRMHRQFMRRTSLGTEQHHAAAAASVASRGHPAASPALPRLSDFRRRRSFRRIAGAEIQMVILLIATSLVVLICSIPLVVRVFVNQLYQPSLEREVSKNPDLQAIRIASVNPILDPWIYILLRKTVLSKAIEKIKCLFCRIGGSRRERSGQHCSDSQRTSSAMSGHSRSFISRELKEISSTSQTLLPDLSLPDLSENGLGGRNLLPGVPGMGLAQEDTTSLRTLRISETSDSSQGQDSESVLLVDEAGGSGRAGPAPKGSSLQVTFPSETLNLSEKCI
Description: as §2, §3

SMILES: CCCCCCCCCCCCC/C=C/[C@@H](O)[C@@H](N)COP(=O)(O)O [Compound S1P, sphingosine-1-phosphate, reference compound]
agonist activity at / interaction with S1PR4 [1]: activates
pEC50 ([1]; β-arrestin assay, dose response in duplicate, read-out: EC50, activation of S1PR4): 7.05
activation of S1PR1 (S1PR1): activates
activation of S1PR2 (S1PR2): activates
activation of S1PR3 (S1PR3): activates

SMILES: CCCCCCCC/C=C\CCCCCCCC(=O)NCCO [OEA, oleoylethanolamide]
pEC50 (GPR119 [2]; β-arrestin assay, dose response in duplicate, read-out: EC50, activation of GPR119): 5.15
GLP-1 secretion (GLUTag cells): induced GLP-1 secretion to the same magnitude
blood glucose in OGTT after intravenous delivery [3]: fails to lower blood glucose
pEC50 (GPR119 [4]; HEK293 cells expressing GPR119, quadruplicate, read-out: EC50, cAMP response): 5.29
cellular cAMP concentration (GPR119 [4]): increased cellular cAMP concentrations in a GPR119 dependent fashion

SMILES: CCCCCCCCCCCCCC(O)CC(=O)NCC(=O)O (stereo not shown) [N-3-hydroxypalmitoyl glycine]
activation of G2A (G2A): activate G2A

SMILES: CCCCCCCCCCCC(O)CC(=O)OC(CCCCCCC)CC(=O)N[C@@H](CCC(N)=O)C(=O)O (stereo partly shown) [N-acyloxyacyl glutamine, 3-[(3-OH-myristoyl)oxy]decanoyl glutamine]
antagonism of PTGIR (PTGIR; antagonist screen): specifically antagonized
pIC50 (PTGIR; in the presence of endogenous ligand, read-out: IC50, antagonist activity against PTGIR): 4.82
antagonism of PTGER4 (PTGER4; antagonist screen): antagonized
pIC50 (PTGER4; in the presence of endogenous ligand, read-out: IC50, antagonist activity against PTGER4): 4.37

SMILES: CCCCCCCC/C=C\CCCCCCCC(=O)OC(CO)CO [Compound 2-OG, 2-oleoyl glycerol]
GLP-1 secretion (GLUTag cells): induced GLP-1 secretion to the same magnitude

SMILES: CCCCCCCCCCCCCC(O)CC(=O)N[C@@H](CCCCN)C(=O)O (stereo partly shown) [N-3-hydroxypalmitoyl lysine]
agonist activity at / interaction with S1PR4 [1]: specific agonist of S1PR4; also recorded: interacts with S1PR4

More lines, main results first:

interaction with GPR119 (GPR119 [2]): interacts with GPR119
Emax (GPR119 [2]; relative to endogenous ligand, read-out: maximal activation of GPR119 compared with the endogenous ligand): 100%
SMILES: CCCCCCCCCCCCCCCC(=O)NC(CO)CO [N-palmitoyl serinol]

interaction with GPR119 (GPR119 [2]): interacts with GPR119
maximum GPR119 activation compared with OEA (GPR119 [2]; β-arrestin assay, FIG. 5A): ~2 fold
SMILES: CCCCCCCC/C=C\CCCCCCCC(=O)NC(CO)CO [N-oleoyl serinol]
GLP-1 secretion (GLUTag cells): induced GLP-1 secretion to the same magnitude
cellular cAMP concentration (GPR119 [4]): increased cellular cAMP concentrations in a GPR119 dependent fashion

activation of G2A (G2A): activate G2A
SMILES: CCCCCCCCCCCCCCCC(=O)N[C@@H](C)C(=O)O [N-palmitoyl alanine]

Emax ([1]; relative to endogenous ligand, read-out: maximal activation of S1PR4 compared with the endogenous ligand): 80%
activation of S1PR1 (S1PR1): did not activate
activation of S1PR2 (S1PR2): did not activate
activation of S1PR3 (S1PR3): did not activate
SMILES: CCCCCCCCCCCCCC(O)CC(=O)NC(CCCN)C(=O)O (stereo not shown) [N-3-hydroxypalmitoyl ornithine, N-3-OH-palmitoyl ornithine]
agonist activity at / interaction with S1PR4 [1]: specific agonist of S1PR4; also recorded: interacts with S1PR4

activation of G2A (G2A): activates G2A
SMILES: CCCCCCCCCCCCCCCC(=O)NCC(=O)O [N-palmitoyl glycine]

pEC50 (G2A; β-arrestin assay, dose response, read-out: EC50, activation of G2A): 5.52
SMILES: CCCCCCCCCCCCCC(=O)N[C@@H](C)C(=O)O [N-myristoyl alanine]

From patent publication US20200113950A1, “Human microbiota derived N-acyl amides for the treatment of human disease” (The Rockefeller University, priority 2017, published 2020)
